Results: patent US20090185973A1, “METHODS, COMPOSITIONS, UNIT DOSAGE FORMS, AND KITS FOR PHARMACOLOGIC STRESS TESTING WITH REDUCED SIDE EFFECTS” (ADENOBIO N.V., priority 2008, published 2009)
Values joined by “and” are separate entries in the source; they are usually repeats but may differ in a detail not shown here. Identical values can stand only once.

Columns and labels:
Format in all cases: in vivo, human
[1] = tested on: patients suffering from ischemic heart disease; experiment: Tolerance: occurrence and severity of adverse events (Example 1)
Source text: The secondary end-point was patient tolerance to the procedure.
Cumulative results on the severity of the three subjective symptoms of the composite (chest pain, dyspnea, flushing) rated from 0 to 30. Cumulative results on the severity of the three subjective symptoms of the composite (chest pain, dyspnea, flushing) rated from 0 to 30.

[2] = tested on: coronary patients; experiment: TTDE coronary reserve study, concurrent administration for two minutes (Example 3); settings: 31 patients
Source text: Primary efficacy end-points were peak and mean diastolic flow velocities (their measurements reflect coronary blood flow values). The secondary end-point was patient's tolerance to the procedure.

[3] = tested on: patients with normal coronary reserve; experiment: Priming dose effect: time to peak and return to baseline, concurrent administration (Example 4); settings: for Time to peak, individual patients / Return to BL, individual patients / Return to BL, Mean / Return to BL, Total / Time to peak, Mean / Time to peak, Total: N = 6; for Time to peak, individual patients / Return to BL, individual patients: listed as ADE; for Time to peak (near maximal hyperemia): adenosine alone vs concurrent combination without priming dose, on average
Source text: As a test, a low priming dose of dipyridamole was combined with the concurrent administration of the two drugs to determine whether the time to peak and the occurrence of near maximal hyperaemia could be accelerated, especially when infusion time is reduced by, for example, one minute.

[4] = tested on: patients; experiment: Control: two consecutive adenosine infusions, TTDE velocities; settings: for MV Min, individual patients / PV Min, individual patients / MV Min, mean / PV Min, mean: at rest; for MV Min, individual patients / PV Min, individual patients / PV Max, individual patients / MV Max, individual patients: ADE1 first, ADE2 second adenosine infusion; for MV Min, mean / PV Min, mean / MV Max, mean / PV Max, mean: mean of 5 patients; for PV Max, individual patients / MV Max, individual patients / MV Max, mean / PV Max, mean: under stress
Source text: Abbreviations used in the table are defined below:

[5] = TOTAL (n = 40), all dipyridamole doses
[6] = all 40 patients, ADE 140 μg/kg/min, All SC (DIP 4/5/6)
[7] = Delta = peak-BL, concurrent dipyridamole 10 + adenosine 70 μg/kg/min 2 min vs adenosine alone
[8] = concurrent dipyridamole 10 + adenosine 70 μg/kg/min 2 min vs adenosine alone
[9] = ADE vs C concurrent with dipyridamole priming dose (0.1 mg)
[10] = with dipyridamole priming dose (0.1 mg)
[11] = without dipyridamole priming dose

In the case of Nc1ncnc2c1ncn2[C@@H]1O[C@H](CO)[C@@H](O)[C@H]1O [adenosine], the “Severity of chest pain” value ([1]; DIP6 (n = 5): SC dipyridamole 23 μg/kg + adenosine 70 μg/kg/min vs adenosine alone 140 μg/kg/min) is reported as 0 ± 0, the “Severity of chest pain” value [1, 5] is reported as 0.99 ± 1.93 and the Severity of dyspnea [1, 5] is reported as 2.55 ± 2.71. The Severity of flushing [1, 5] was 2.52 ± 2.63, the “Chest pain, frequency” value [1, 6] was 22.5% and the “Dyspnea, # patients reporting events” value [1, 6] was 20. For the same compound, the “Dyspnea, frequency” value [1, 6] was 50%, the “Flushing, # patients reporting events” value [1, 6] was 21 and the “Flushing, frequency” value [1, 6] was 52.5%. For the same compound, the “Chest pain, # patients reporting events” value ([1]; all 40 patients, ADE adenosine alone 140 μg/kg/min, All SC (DIP 4/5/6) dipyridamole 23, 28 or 35 μg/kg + adenosine 70 μg/kg/min) was 9, the Delta mean velocity [2, 7] was 41.5 ± 15.3 and the Delta peak velocity [2, 7] was 54.4 ± 20.5. For the same compound, the “Peak velocity at baseline” value ([2]; at rest) was 33.0 ± 12.9, the “Mean velocity at baseline” value ([2]; at rest, concurrent dipyridamole 10 μg/kg/min + adenosine 70 μg/kg/min 2 min vs adenosine alone 140 mg/kg/min (so in the source)) was 25.2 ± 8.9 and the “Coronary reserve assessment using mean velocity” value [2, 8] was 2.79 ± 0.90. The “Coronary reserve assessment using peak velocity” value [2, 8] was 2.82 ± 0.96, the “Time to peak, individual patients” value ([3]; ADE 140 μg/kg/min vs C (Dip 10 μg/kg/min + Ade 70 μg/kg/min) concurrent without dipyridamole priming dose) was 56 s and 120 s and 50 s and 85 s and 80 s and 75 s and the “Return to BL, individual patients” value ([3]; ADE 140 μg/kg/min vs C concurrent without dipyridamole priming dose) was 75 seconds and 60 seconds (3×) and 100 seconds and 48 seconds. The “Return to BL, individual patients” value [3, 9] was 55 s and 65 s and 54 s and 67 s and 48 s and 60 s, the “Time to peak, individual patients” value [3, 9] was 74 s and 55 s and 45 s and 44 s and 30 s and 40 s and the “Time to peak (near maximal hyperemia)” value [3] was “about 1 minute”. For the same compound, the “Time to peak (near maximal hyperemia)” value ([3]; listed as Adenoscan) was about 1 min, the “Return to BL, Mean” value [3, 10] was 58.1 s and the “Return to BL, Total” value [3, 10] was 349 s. For the same compound, the “Time to peak, Mean” value [3, 10] was 48 s, the “Time to peak, Total” value [3, 10] was 288 s and the “Return to BL, Mean” value [3, 11] was 67.1 s. For the same compound, the “Return to BL, Total” value [3, 11] was 403 s, the “Time to peak, Mean” value [3, 11] was 69.3 s and the “Time to peak, Total” value [3, 11] was 416 s. For the same compound, the “Max velocity differential MV (ADE1 − ADE2)” value ([4]; 5 patients) was 52.6 (ADE2) = 2.4 cm/sec, the “Max velocity differential PV (ADE1 − ADE2)” value ([4]; 5 patients) was 70.8 (ADE2) = 4.8 cm/sec and the “Difference in velocity measurements between two consecutive infusions” value ([4]; 140 mcg/kg/min, 5 minute interval, p>0.05) was “no difference was seen”. For the same compound, the “MV Min, individual patients” value ([4]; listed as ADE1) was 20 cm/s and 25 cm/s and 17 cm/s and 22 cm/s and 23 cm/s, the “PV Min, individual patients” value ([4]; listed as ADE1) was 28 cm/sec and 34 cm/sec and 23 cm/sec and 30 cm/sec (2×) and the “MV Min, individual patients” value ([4]; listed as ADE2) was 20 cm/s and 23 cm/s and 16 cm/s and 22 cm/s and 21 cm/s. The “PV Min, individual patients” value ([4]; listed as ADE2) was 25 cm/sec and 31 cm/sec and 22 cm/sec and 29 cm/sec and 26 cm/sec, the “MV Min, mean” value ([4]; listed as ADE1) was 21.4 cm/s and the “PV Min, mean” value ([4]; listed as ADE1) was 29 cm/sec. For the same compound, the “MV Min, mean” value ([4]; listed as ADE2) was 20.4 cm/s, the “PV Min, mean” value ([4]; listed as ADE2) was 26.6 cm/sec and the “PV Max, individual patients” value ([4]; 140 mcg/kg/min, 5 minute interval, listed as ADE1) was 70 cm/sec and 68 cm/sec and 65 cm/sec and 102 cm/sec and 73 cm/sec. The “PV Max, individual patients” value ([4]; 140 mcg/kg/min, 5 minute interval, listed as ADE2) was 62 cm/sec and 60 cm/sec and 66 cm/sec and 103 cm/sec and 63 cm/sec, the “MV Max, individual patients” value ([4]; 140 mcg/kg/min, listed as ADE1) was 50 cm/s and 49 cm/s and 48 cm/s and 75 cm/s and 53 cm/s and the “MV Max, individual patients” value ([4]; 140 mcg/kg/min, listed as ADE2) was 48 cm/sec (2×) and 45 cm/sec and 75 cm/sec and 47 cm/sec. The “MV Max, mean” value ([4]; listed as ADE1) was 55 cm/s, the “PV Max, mean” value ([4]; listed as ADE1) was 75.6 cm/sec and the “MV Max, mean” value ([4]; listed as ADE2) was 52.6 cm/s. The “PV Max, mean” value ([4]; listed as ADE2) was 70.8 cm/sec.
